“And” between values parts separate entries of the source, which are not always exact repeats. Identical values can stand only once.
System: BDF1 mice, Adenocarcinoma 755 s.c., tumor weight T/C
Assay: NCI In Vivo Anticancer Drug Screen. Data for tumor model Adenocarcinoma 755 (subcutaneous) in B6D2F1 (BDF1) mice
Settings: endpoint: mean tumor weight, higher = larger tumour
Procedure: The antitumor activity of compounds was measured in mice bearing transplantable tumors. Survival or tumor size were measured and the results are expressed as the measurement made in the treated group (T) divided by the measurement made in the vehicle treated control group (C). The tumor model used in this assay is Adenocarcinoma 755 (subcutaneous) in B6D2F1 (BDF1) mice

[1] = dose: 125.0 mg/kg/injection, schedule: Q01DX011 (ip), vehicle: carboxymethylcellulose (CMC)
[2] = dose: 250.0 mg/kg/injection, schedule: Q01DX011 (ip), vehicle: carboxymethylcellulose (CMC)
[3] = dose: 500.0 mg/kg/injection, schedule: Q01DX011 (ip), vehicle: carboxymethylcellulose (CMC)
[4] = dose: 15.0 mg/kg/injection, schedule: Q01DX011 (ip), vehicle: carboxymethylcellulose (CMC)
[5] = dose: 25.0 mg/kg/injection, schedule: Q01DX011 (ip), vehicle: methylcellulose (MC)
[6] = dose: 30.0 mg/kg/injection, schedule: Q01DX011 (ip), vehicle: carboxymethylcellulose (CMC)
[7] = dose: 75.0 mg/kg/injection, schedule: Q01DX011 (ip), vehicle: methylcellulose (MC)
[8] = dose: 15.0 mg/kg/injection, schedule: Q01DX011 (ip), vehicle: methylcellulose (MC)
[9] = dose: 31.0 mg/kg/injection, schedule: Q01DX011 (ip), vehicle: methylcellulose (MC)
[10] = dose: 62.0 mg/kg/injection, schedule: Q01DX011 (ip), vehicle: methylcellulose (MC)
[11] = dose: 125.0 mg/kg/injection, schedule: Q01DX011 (ip), vehicle: methylcellulose (MC)

S=c1nc[nH]c2c1ncn2C1CCCCC1
T/C (dose: 62.0 mg/kg/injection, schedule: Q01DX011 (ip), vehicle: carboxymethylcellulose (CMC)): 117 % of control | T/C [1]: 118 % of control | T/C (dose: 188.0 mg/kg/injection, schedule: Q01DX011 (oral), vehicle: carboxymethylcellulose (CMC)): 154 % of control | T/C [2]: 66 % of control | T/C (dose: 376.0 mg/kg/injection, schedule: Q01DX011 (oral), vehicle: carboxymethylcellulose (CMC)): 104 % of control | T/C [3]: 62 % of control | T/C (dose: 752.0 mg/kg/injection, schedule: Q01DX011 (oral), vehicle: carboxymethylcellulose (CMC)): 87 % of control

CSc1nc(C)c(Br)c(Sc2nc(N)nc3nc[nH]c23)n1
T/C (dose: 0.3 mg/kg/injection, schedule: Q01DX011 (ip), vehicle: carboxymethylcellulose (CMC)): 106 % of control | T/C (dose: 0.7 mg/kg/injection, schedule: Q01DX011 (ip), vehicle: carboxymethylcellulose (CMC)): 117 % of control | T/C (dose: 6.0 mg/kg/injection, schedule: Q01DX011 (ip), vehicle: carboxymethylcellulose (CMC)): 42 % of control | T/C (dose: 12.0 mg/kg/injection, schedule: Q01DX011 (ip), vehicle: carboxymethylcellulose (CMC)): 28 % of control | T/C (dose: 24.0 mg/kg/injection, schedule: Q01DX011 (ip), vehicle: carboxymethylcellulose (CMC)): 6 % of control

Cc1ccc(S(=O)(=O)NCCCCC(Nc2ncnc3nc[nH]c23)C(=O)O)cc1 (stereo not drawn)
T/C (dose: 25.0 mg/kg/injection, schedule: Q01DX011 (ip), vehicle: saline): 81 % of control | T/C (dose: 75.0 mg/kg/injection, schedule: Q01DX011 (ip), vehicle: saline): 21 % of control | T/C (dose: 225.0 mg/kg/injection, schedule: Q01DX011 (ip), vehicle: saline): 4 % of control

CNS(=O)(=O)c1ncnc2nc[nH]c12
T/C (dose: 3.1 mg/kg/injection, schedule: Q01DX011 (ip), vehicle: methylcellulose (MC)): 77 % of control | T/C (dose: 6.2 mg/kg/injection, schedule: Q01DX011 (ip), vehicle: methylcellulose (MC)): 36 % of control | T/C (dose: 8.0 mg/kg/injection, schedule: Q01DX011 (ip), vehicle: carboxymethylcellulose (CMC)): 51 % of control | T/C (dose: 10.0 mg/kg/injection, schedule: Q01DX011 (ip), vehicle: carboxymethylcellulose (CMC)): 20 % of control | T/C (dose: 12.5 mg/kg/injection, schedule: Q01DX011 (ip), vehicle: methylcellulose (MC)): 44 % of control | T/C [4]: 28 % of control | T/C (dose: 20.0 mg/kg/injection, schedule: Q01DX011 (ip), vehicle: carboxymethylcellulose (CMC)): 2 % of control | T/C [5]: 5 % of control | T/C [6]: 16 % of control | T/C (dose: 40.0 mg/kg/injection, schedule: Q01DX011 (ip), vehicle: carboxymethylcellulose (CMC)): 2 % of control

O=C(CCBr)N1CCC(CCC2CCN(C(=O)CCBr)CC2)CC1
T/C [5]: 94 % of control | T/C [7]: 68 % of control | T/C (dose: 225.0 mg/kg/injection, schedule: Q01DX011 (ip), vehicle: methylcellulose (MC)): 43 % of control

Nc1nc(O)c(Br)c(=O)[nH]1
T/C [8]: 86 % of control | T/C [9]: 69 % of control | T/C [10]: 68 % of control

Nc1ccc2cc(S(=O)(=O)O)cc(O)c2c1N=Nc1ccc(NC(=O)c2ccc(C(=O)Nc3ccc(N=Nc4c(N)ccc5cc(S(=O)(=O)O)cc(O)c45)c(S(=O)(=O)O)c3)cc2)cc1S(=O)(=O)O
T/C (dose: 3.0 mg/kg/injection, schedule: Q01DX011 (ip), vehicle: carboxymethylcellulose (CMC)): 100 % of control | T/C (dose: 7.0 mg/kg/injection, schedule: Q01DX011 (ip), vehicle: carboxymethylcellulose (CMC)): 45 % of control | T/C [4]: 56 % of control | T/C [6]: 48 % of control

Nc1nc(SCc2ccc(Br)cc2)c2ncn(C3OC(CO)C(O)C3O)c2n1 (stereo not drawn)
T/C (dose: 6.0 mg/kg/injection, schedule: Q01DX011 (ip), vehicle: methylcellulose (MC)): 80 % of control | T/C [5]: 32 % of control | T/C (dose: 30.0 mg/kg/injection, schedule: Q01DX011 (ip), vehicle: methylcellulose (MC)): 41 % of control | T/C [7]: 5 % of control

N#CSc1ncnc2nc[nH]c12
T/C (dose: 0.4 mg/kg/injection, schedule: Q01DX011 (ip), vehicle: water): 67 % of control | T/C (dose: 1.0 mg/kg/injection, schedule: Q01DX011 (ip), vehicle: alkali diluted with saline): 20 % of control and 33 % of control | T/C (dose: 1.0 mg/kg/injection, schedule: Q01DX011 (ip), vehicle: saline): 10 % of control | T/C (dose: 1.3 mg/kg/injection, schedule: Q01DX011 (ip), vehicle: water): 8 % of control | T/C (dose: 1.75 mg/kg/injection, schedule: Q01DX011 (ip), vehicle: water): 4 % of control | T/C (dose: 2.0 mg/kg/injection, schedule: Q01DX011 (ip), vehicle: alkali diluted with saline): 1 % of control and 11 % of control | T/C (dose: 2.0 mg/kg/injection, schedule: Q01DX011 (ip), vehicle: saline): 1 % of control | T/C (dose: 4.0 mg/kg/injection, schedule: Q01DX011 (ip), vehicle: alkali diluted with saline): 2 % of control | T/C (dose: 4.0 mg/kg/injection, schedule: Q01DX011 (ip), vehicle: saline): 1 % of control | T/C (dose: 7.0 mg/kg/injection, schedule: Q01DX011 (ip), vehicle: water): 1 % of control | T/C (dose: 8.0 mg/kg/injection, schedule: Q01DX011 (ip), vehicle: saline): 1 % of control

O=C(OCC1OC(n2cnc3c(=S)nc[nH]c32)C(OC(=O)c2ccc(Cl)cc2)C1OC(=O)c1ccc(Cl)cc1)c1ccc(Cl)cc1 (stereo not drawn)
T/C (dose: 50.0 mg/kg/injection, schedule: Q01DX011 (ip), vehicle: carboxymethylcellulose (CMC)): 85 % of control | T/C (dose: 400.0 mg/kg/injection, schedule: Q01DX011 (ip), vehicle: carboxymethylcellulose (CMC)): 1 % of control and 5 % of control

CSc1ncnc2c1ncn2CCO
T/C [5]: 119 % of control

C[C@H](CCC(=O)O)[C@H]1CC[C@H]2[C@@H]3[C@H](O)C[C@@H]4C[C@H](O)CC[C@]4(C)[C@H]3C[C@H](O)[C@]12C (tested in a mixture with another compound)
T/C (dose: 80.0 mg/kg/injection, schedule: Q01DX011 (ip), vehicle: methylcellulose (MC)): 31 % of control and 53 % of control | T/C (dose: 160.0 mg/kg/injection, schedule: Q01DX011 (ip), vehicle: methylcellulose (MC)): 76 % of control | T/C (dose: 320.0 mg/kg/injection, schedule: Q01DX011 (ip), vehicle: methylcellulose (MC)): 36 % of control

Cn1c(=O)c2[nH]c(/N=N/N3CCN(CCO)CC3)nc2n(C)c1=O
T/C (dose: 75.0 mg/kg/injection, schedule: Q01DX011 (ip), vehicle: other): 119 % of control | T/C (dose: 225.0 mg/kg/injection, schedule: Q01DX011 (ip), vehicle: other): 92 % of control

Nc1nc2nc(/N=N/SCCC(=O)O)[nH]c2c(=O)[nH]1
T/C (dose: 37.5 mg/kg/injection, schedule: Q01DX011 (ip), vehicle: methylcellulose (MC)): 54 % of control | T/C [7]: 45 % of control

NC(Cc1cccs1)C(=O)O (stereo not drawn)
T/C [1]: 71 % of control and 72 % of control | T/C [11]: 90 % of control | T/C [2]: 91 % of control and 106 % of control | T/C (dose: 250.0 mg/kg/injection, schedule: Q01DX011 (ip), vehicle: methylcellulose (MC)): 155 % of control | T/C [3]: 65 % of control and 78 % of control | T/C (dose: 500.0 mg/kg/injection, schedule: Q01DX011 (ip), vehicle: methylcellulose (MC)): 59 % of control | T/C (dose: 1000.0 mg/kg/injection, schedule: Q01DX011 (ip), vehicle: carboxymethylcellulose (CMC)): 96 % of control and 102 % of control | T/C (dose: 1000.0 mg/kg/injection, schedule: Q01DX011 (ip), vehicle: methylcellulose (MC)): 52 % of control

Cn1c(=O)c2[nH]c(N/N=C/c3ccc(Br)cc3)nc2n(C)c1=O
T/C [6]: 109 % of control | T/C (dose: 60.0 mg/kg/injection, schedule: Q01DX011 (ip), vehicle: carboxymethylcellulose (CMC)): 106 % of control | T/C (dose: 120.0 mg/kg/injection, schedule: Q01DX011 (ip), vehicle: carboxymethylcellulose (CMC)): 92 % of control and 116 % of control | T/C (dose: 240.0 mg/kg/injection, schedule: Q01DX011 (ip), vehicle: carboxymethylcellulose (CMC)): 104 % of control and 88 % of control | T/C (dose: 480.0 mg/kg/injection, schedule: Q01DX011 (ip), vehicle: carboxymethylcellulose (CMC)): 97 % of control

CC(=O)NNC(=O)c1ccccn1
T/C (dose: 75.0 mg/kg/injection, schedule: Q01DX011 (ip), vehicle: water): 68 % of control | T/C (dose: 100.0 mg/kg/injection, schedule: Q01DX011 (ip), vehicle: water): 37 % of control

CCCCNP(=O)(N1CC1C)N1CC1C (stereo not drawn)
T/C (dose: 7.0 mg/kg/injection, schedule: Q01DX011 (ip), vehicle: saline): 53 % of control | T/C (dose: 14.0 mg/kg/injection, schedule: Q01DX011 (ip), vehicle: saline): 53 % of control | T/C (dose: 28.0 mg/kg/injection, schedule: Q01DX011 (ip), vehicle: saline): 25 % of control | T/C (dose: 56.0 mg/kg/injection, schedule: Q01DX011 (ip), vehicle: saline): 1 % of control

COc1cc(C(=O)O)nc(SC)n1
T/C [8]: 115 % of control | T/C [9]: 94 % of control | T/C [10]: 88 % of control | T/C [11]: 87 % of control

From PubChem BioAssay AID180 (DTP/NCI, 2004)
